One assay concerns TNFα production. Kind of assay: TNFα production in human PBMCs stimulated by LPS + ATP. As to conditions: Human PBMC. It counts as cell-based. How it is done: (§1) Inflammasome activation and whole blood assays were essentially carried out as described earlier. Details can be found in the supplementary information section accompanying this publication. A protocol for blood draws from healthy volunteers and use of the blood in preclinical assays was approved by Western Institutional Review Board, Inc (Puyallup, WA, USA). Informed consent was obtained from each donor prior to the first blood draw.
(§2) Cell viability was determined by addition of an equal volume of CellTiter-Glo® 2.0 reagent (Promega) to the remaining cells/supernatant in each well. Intracellular Caspase-1 activity was measured using the Caspase-Glo® assay (Promega) according to the manufacturer’s instructions. The biochemical capsase-1 assay was conducted at Reaction Biology Corporation (Malvern, USA). Human IL-1β, IL-1α, and TNFα and mouse IL-1β were measured in cell culture supernatants using homogeneous time resolved fluorescence assay kits (HTRF, Cisbio, Codolet, France). Human IL-18 was measured in cell culture supernatants using an ELISA kit (R&D Systems, Minneapolis, MN, USA). Plasma IL-1β concentrations were determined by Quantikine® ELISA (R&D Systems, Minneapolis, MN).
4H). MS: m/z 433.1 (M+H+). […]

The next assay has as its target NLRP3 inflammasome (Homo sapiens, UniProt Q96P20). Kind of assay: Inhibition of IL-1β production in LPS stimulated (alternative pathway) human whole blood. Type of assay: cell-based. How it is done: as §1
as §2, with “MN). […]” for “MN).”
flagellin, prepared in Opt iMEM and combined with Lipofectamine 2000. […]

A value given as a limit tells only on which side of the number the result lay.

Sequence of NLRP3 inflammasome (Q96P20 whole entry): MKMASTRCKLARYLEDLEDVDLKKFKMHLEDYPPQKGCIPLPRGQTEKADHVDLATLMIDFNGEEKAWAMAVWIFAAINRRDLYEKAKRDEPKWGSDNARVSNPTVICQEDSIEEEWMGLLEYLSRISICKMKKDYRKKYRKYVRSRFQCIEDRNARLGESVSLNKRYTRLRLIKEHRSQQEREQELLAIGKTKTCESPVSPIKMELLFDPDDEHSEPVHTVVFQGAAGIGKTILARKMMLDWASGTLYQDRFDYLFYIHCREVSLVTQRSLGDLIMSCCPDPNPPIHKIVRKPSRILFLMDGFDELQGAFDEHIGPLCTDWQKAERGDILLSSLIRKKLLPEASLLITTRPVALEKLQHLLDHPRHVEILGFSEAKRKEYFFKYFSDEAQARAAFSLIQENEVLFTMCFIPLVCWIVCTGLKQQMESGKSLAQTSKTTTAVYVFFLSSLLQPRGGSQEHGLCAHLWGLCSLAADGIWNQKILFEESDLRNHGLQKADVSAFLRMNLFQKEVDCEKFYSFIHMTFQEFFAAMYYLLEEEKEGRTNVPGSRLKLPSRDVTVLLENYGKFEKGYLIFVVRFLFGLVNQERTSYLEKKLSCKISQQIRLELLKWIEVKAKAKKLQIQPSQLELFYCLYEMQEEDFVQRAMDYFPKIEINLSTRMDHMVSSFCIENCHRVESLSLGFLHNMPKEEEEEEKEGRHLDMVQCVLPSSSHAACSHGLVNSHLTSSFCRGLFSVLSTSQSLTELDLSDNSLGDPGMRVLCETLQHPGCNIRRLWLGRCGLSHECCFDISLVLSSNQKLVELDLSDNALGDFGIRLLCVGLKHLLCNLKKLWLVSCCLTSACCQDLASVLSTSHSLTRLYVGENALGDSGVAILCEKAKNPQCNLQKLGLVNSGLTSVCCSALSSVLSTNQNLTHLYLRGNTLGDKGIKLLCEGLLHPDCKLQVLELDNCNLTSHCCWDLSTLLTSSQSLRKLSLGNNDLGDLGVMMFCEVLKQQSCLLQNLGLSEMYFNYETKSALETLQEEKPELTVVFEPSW

As for `CO[C@@H]1COc2c(S(=O)(=O)NC(=O)Nc3c4c(cc5c3CCC5)CCC4)cnn2C1` [JT002], the “effect on TNFα production” value with TNFα production (JT002 concentrations up to 1 µM) is “no effect”. The IC50 is greater than 1000 nM with TNFα production (read-out: Geo Av IC50, TNFα) and 32 nM at NLRP3 inflammasome (Human whole blood, LPS only (alternative pathway), read-out: Geo Av IC50, IL-1β). Further, the “IC50 in human whole blood, alternative (LPS) versus canonical (LPS + ATP) NLRP3 pathway activation” value at NLRP3 inflammasome (how much lower the alternative pathway IC50 is) is given as “threefold more potent”.

As a reminder, the IC50 is the point on the concentration scale where inhibition reaches its midpoint.

These data come from article PMC10439952, “JT002, a small molecule inhibitor of the NLRP3 inflammasome for the treatment of autoinflammatory disorders” (Scientific Reports, 2023).
